This is an account of results in US9890147B2 (BAYER PHARMA AKTIENGESELLSCHAFT, priority 2012, dated 2018).

Usually IC50 stands for the midpoint of a concentration-inhibition curve. A lower IC50 goes with higher potency.

This experiment concerns the target T1, BRD4 (BD1) (Homo sapiens, UniProt O60885).
T1 construct: with relatively long constructs also being possible, preferably amino acids 44-168; made in house; host or cells: E. coli
Nature of the experiment: Binding assay BRD4/acetylated peptide H4 (TR-FRET protein-protein interaction assay). From the text:
Binding Assay BRD4/Acetylated Peptide H4 (“PRO”)
To assess the BRD4 binding of the substances described in the present application, their ability to inhibit the interaction between BRD4 (BD1) and acetylated histone H4 in a dose-dependent manner was quantified (Filippakopoulos et al., Cell, 2012, 149: 214-231).
For this purpose, use was made of a time-resolved fluorescence resonance energy transfer (TR-FRET) assay which measured binding between N-terminally His6-tagged BRD4 (BD1) (amino acids 67-152, with relatively long constructs also being possible, preferably amino acids 44-168) and a synthetic acetylated histone H4 (Ac—H4) peptide having the sequence GRGK(Ac)GGK(Ac)GLGK(Ac)GGAK(Ac)RHGSGSK-biotin. The recombinant BRD4 protein-produced according to Filippakopoulos et al., Cell, 2012, 149: 214-231—was expressed in E. coli and purified by (Ni-NTA) affinity and (Sephadex G-75) size exclusion chromatography. The Ac—H4 peptide is commercially available, for example from Biosyntan (Berlin, Germany). In a typical assay, 11 different concentrations of each substance (0.1 nM, 0.33 nM, 1.1 nM, 3.8 nM, 13 nM, 44 nM, 0.15 μM, 0.51 μM, 1.7 μM, 5.9 μM and 20 μM) were measured in duplicate on the same microtitre plate. To this end, 100-fold concentrated solutions in DMSO were prepared by serial dilution (1:3.4) of a 2 mM stock solution in a clear 384-well microtitre platte (Greiner Bio-One, Frickenhausen, Germany) 50 nl of these were transferred into a black test plate (Greiner Bio-One, Frickenhausen, Germany). The test was started by addition of 2 μl of a 2.5-fold concentrated BRD4 solution (final concentration usually 10 nM in the […] of the reaction volume) in aqueous assay buffer [50 mM HEPES pH 7.5. 50 mM sodium chloride (NaCl), 0.25 mM CHAPS and 0.05% serum albumin (BSA)] to the substances in the test plate. This was followed by a 10-minute incubation step at 22° C. to pre-equilibrate putative complexes between BRD4 and the substances.
The mixture was then incubated in the dark for one hour at 22° C. and then for at least 3 hours and at most overnight at 4° C. Formation of BRD4/Ac—H4 complexes was determined by measuring the resonance energy transfer from the streptavidin-Eu cryptate to the anti-6His-XL665 antibody in the reaction. To this end, the fluorescence emission was measured at 620 nm and 665 nm after excitation at 330-350 nm in a TR-FRET measuring device, for example a Rubystar or Pherastar (both from BMG Lab Technologies, Offenburg, Germany) or a Viewlux (Perkin-Elmer). The ratio of the emission at 665 nm and at […] was used as an indicator for the amount of BRD4/Ac—H4 complexes formed.
The data obtained (ratios) were normalized, with 0% inhibition corresponding to the mean of the measured values of a set of controls (usually 32 data points) comprising all reagents. Here, 50 nl of DMSO (100%) were used instead of test substances. An inhibition of 100% corresponded to the mean of the measured values of a set of controls (usually 32 data points) comprising all reagents except for BRD4. The IC50 was determined by regression analysis based on a 4-parameter equation (minimum, maximum, IC50, Hill; Y=Max+(Min−Max)/(1+(X/IC 50)^Hill)).
A general note: Time-resolved FRET reads energy transfer from a long-lived donor to a nearby acceptor.

`CCC1Cc2cc(OC)c(OC)cc2C(c2ccc(N3CCOC3=O)cc2)=NN1C(=O)NC` (racemic) [Example 228, (±)-4-ethyl-7,8-dimethoxy-N-methyl-1-[4-(2-oxo-1,3-oxazolidin-3-yl)phenyl]-4,5-dihydro-3H-2,3-benzodiazepine-3-carboxamide]: the IC50 worked out at 1690 nM. Take `CNC(=O)N1N=C(c2ccc(Cl)cc2)c2ccc(N3CCCCC3=O)cc2CC1C` (racemic) [Example 231, (±)-1-(4-chlorophenyl)-N,4-dimethyl-7-(2-oxopiperidin-1-yl)-4,5-dihydro-3H-2,3-benzodiazepine-3-carboxamide]: the IC50 turned out to be 3370 nM. As for `CNC(=O)N1N=C(c2ccc(Cl)cc2)c2ccc(N3CCOCC3=O)cc2CC1C` (racemic) [Example 232, (±)-1-(4-chlorophenyl)-N,4-dimethyl-7-(3-oxomorpholin-4-yl)-4,5-dihydro-3H-2,3-benzodiazepine-3-carboxamide], the half-inhibitory concentration (IC50) turned out to be 2840 nM. `CNC(=O)N1N=C(c2ccc(Cl)cc2)c2ccc(N3CCOCC3)cc2CC1C` (racemic) [Example 233, (±)-1-(4-chlorophenyl)-N,4-dimethyl-7-(morpholin-4-yl)-4,5-dihydro-3H-2,3-benzodiazepine-3-carboxamide]: the IC50 worked out at 3450 nM.

`CNC(=O)N1N=C(c2ccc(Cl)cc2)c2ccc(N3CCCC3)cc2CC1C` (racemic) [Example 234, (±)-1-(4-chlorophenyl)-N,4-dimethyl-7-(pyrrolidin-1-yl)-4,5-dihydro-3H-2,3-benzodiazepine-3-carboxamide] came in with a concentration for half-maximal inhibition (IC50) of 3830 nM. With `CNC(=O)N1N=C(c2ccc(Cl)cc2)c2ccc(N3CCS(=O)(=O)CC3)cc2CC1C` (racemic) [Example 235, (±)-1-(4-chlorophenyl)-7-(1,1-dioxidothiomorpholin-4-yl)-N,4-dimethyl-4,5-dihydro-3H-2,3-benzodiazepine-3-carboxamide], the IC50 stood at 5020 nM. For the compound `CNC(=O)N1N=C(c2ccc(Cl)cc2)c2ccc(N3CCN(C)CC3)cc2CC1C` (racemic) [Example 236, (±)-1-(4-chlorophenyl)-N,4-dimethyl-7-(4-methylpiperazin-1-yl)-4,5-dihydro-3H-2,3-benzodiazepine-3-carboxamide], the IC50 was 2200 nM. The result for `CNC(=O)N1N=C(c2ccc(N3CCN(C)CC3)cc2)c2ccc(N3CCN(C)CC3)cc2CC1C` (racemic) [Example 237, (±)-N,4-dimethyl-7-(4-methylpiperazin-1-yl)-1-[4-(4-methylpiperazin-1-yl)phenyl]-4,5-dihydro-3H-2,3-benzodiazepine-3-carboxamide] reads 1070 nM; that for `CNC(=O)N1N=C(c2ccc(N3CCN(C)C(=O)C3)cc2)c2ccc(N3CCN(C)C(=O)C3)cc2CC1C` (racemic) [Example 238, (±)-N,4-dimethyl-7-(4-methyl-3-oxopiperazin-1-yl)-1-[4-(4-methyl-3-oxopiperazin-1-yl)phenyl]-4,5-dihydro-3H-2,3-benzodiazepine-3-carboxamide], 130 nM. Compound `CNC(=O)N1N=C(c2ccc(Cl)cc2)c2ccc(-c3ccc(F)cc3)cc2CC1C` (racemic) [Example 239, (±)-1-(4-chlorophenyl)-7-(4-fluorophenyl)-N,4-dimethyl-4,5-dihydro-3H-2,3-benzodiazepine-3-carboxamide] had an IC50 of 11400 nM. As for `CNC(=O)N1N=C(c2ccc(Cl)cc2)c2ccc(-c3ccncc3)cc2CC1C` (racemic) [Example 240, (±)-1-(4-chlorophenyl)-N,4-dimethyl-7-(pyridin-4-yl)-4,5-dihydro-3H-2,3-benzodiazepine-3-carboxamide], the IC50 was determined as 4500 nM. Regarding `CNC(=O)N1N=C(c2ccc(Cl)cc2)c2ccc(-c3ccc(O)nc3)cc2CC1C` (racemic) [Example 241, (±)-1-(4-chlorophenyl)-7-(6-hydroxypyridin-3-yl)-N,4-dimethyl-4,5-dihydro-3H-2,3-benzodiazepine-3-carboxamide], the half-maximal inhibitory concentration (IC50) is 2560 nM. For `CNC(=O)N1N=C(c2ccc(Cl)cc2)c2ccc(-c3c(C)noc3C)cc2CC1C` (racemic) [Example 242, (±)-1-(4-chlorophenyl)-7-(3,5-dimethyl-1,2-oxazol-4-yl)-N,4-dimethyl-4,5-dihydro-3H-2,3-benzodiazepine-3-carboxamide] the value was 2690 nM. As to `CNC(=O)N1N=C(c2ccc(N3CCCS3(=O)=O)cc2)c2cc(OC)c(OC)cc2CC1C` (racemic) [Example 244, (±)-1-[4-(1,1-Dioxido-1,2-thiazolidin-2-yl)phenyl]-7,8-dimethoxy-N,4-dimethyl-4,5-dihydro-3H-2,3-benzodiazepine-3-carboxamide], the IC50 was found to be 30 nM.

Regarding `CNC(=O)N1N=C(c2ccc(-c3c(C)nn(C)c3C)cc2)c2cc(OC(F)(F)F)ccc2CC1C` (racemic) [Example 249, (±)-N,4-dimethyl-8-(trifluoromethoxy)-1-[4-(1,3,5-trimethyl-1H-pyrazol-4-yl)phenyl]-4,5-dihydro-3H-2,3-benzodiazepine-3-carboxamide], the IC50 worked out at 30 nM. The result for `CNC(=O)N1N=C(c2cc(N3CCN(C)CC3)c(Br)cc2Br)c2cc(OC)c(OC)cc2CC1C` (racemic) [Example 252, (±)-1-[2,4-Dibromo-5-(4-methylpiperazin-1-yl)phenyl]-7,8-dimethoxy-N,4-dimethyl-4,5-dihydro-3H-2,3-benzodiazepine-3-carboxamide] reads 5290 nM; that for `CCC(=O)N1N=C(c2ccc(N3CCN(C)CC3)cc2)c2cc(OC)c(OC)cc2CC1C` (racemic) [Example 255, (±)-7,8-dimethoxy-4-methyl-1-[4-(4-methylpiperazin-1-yl)phenyl]-3-(1-oxopropyl)-4,5-dihydro-3H-2,3-benzodiazepine], 240 nM. In turn, `COc1cc2c(cc1OC)C(c1ccc(N3CCN(C)CC3)cc1)=NN(C(=O)C1CC1)C(C)C2` (racemic) [Example 256, (±)-3-(cyclopropylcarbonyl)-7,8-dimethoxy-4-methyl-1-[4-(4-methylpiperazin-1-yl)phenyl]-4,5-dihydro-3H-2,3-benzodiazepine] returned a half-maximal inhibitory concentration (IC50) of 610 nM.

In the case of `COc1cc2c(cc1OC)C(c1ccc(N3CCN(C)CC3)cc1)=NN(C(=O)NC1CC1)C(C)C2` (racemic) [Example 257], the IC50 is 2000 nM. The result for `CNC(=S)N1N=C(c2ccc(N3CCN(C)CC3)cc2)c2cc(OC)c(OC)cc2CC1C` (racemic) [Example 258, (±)-7,8-Dimethoxy-N,4-dimethyl-1-[4-(4-methylpiperazin-1-yl)phenyl]-4,5-dihydro-3H-2,3-benzodiazepine-3-carbothioamide] reads 190 nM; that for `COC(=O)N1N=C(c2ccc(N3CCN(C)CC3)cc2)c2cc(OC)c(OC)cc2CC1C` (racemic) [Example 259, Methyl(±)-7,8-dimethoxy-4-methyl-1-[4-(4-methylpiperazin-1-yl)phenyl]-4,5-dihydro-3H-2,3-benzodiazepine-3-carboxylate], 520 nM; that for `CCOC(=O)N1N=C(c2ccc(N3CCN(C)CC3)cc2)c2cc(OC)c(OC)cc2CC1C` (racemic) [Example 260, Ethyl (±)-7,8-dimethoxy-4-methyl-1-[4-(4-methylpiperazin-1-yl)phenyl]-4,5-dihydro-3H-2,3-benzodiazepine-3-carboxylate], 6490 nM. Compound `CCNC(=O)N1N=C(c2ccc(N3CCN(C)CC3)cc2)c2cc(OC)c(OC)cc2CC1C` (racemic) [Example 261, (±)-N-Ethyl-7,8-dimethoxy-4-methyl-1-[4-(4-methylpiperazin-1-yl)phenyl]-4,5-dihydro-3H-2,3-benzodiazepine-3-carboxamide] had an IC50 of 1490 nM.

In the case of `COc1cc2c(cc1OC)C(c1ccc(N3CCN(C)CC3)cc1)=NN(C(C)=O)[C@@H](C)C2` (single isomer, unassigned) [Example 245.1], the IC50 worked out at 390 nM.
